System: Heart
Experiment: Inhibition of [3H]thymidine phosphorylation in isolated perfused Sprague-Dawley rat heart after 30 mins
Assay type: functional, tissue-based

Cc1cn([C@H]2C[C@H](N=[N+]=[N-])[C@@H](CO)O2)c(=O)[nH]c1=O [ZIDOVUDINE]
IC50: 24.4 µM

Source: ChEMBL document CHEMBL1145540, “Zidovudine inhibits thymidine phosphorylation in the isolated perfused rat heart” (Antimicrob Agents Chemother, 2007)
